According to PMC6094047 (Antiviral Research, 2018):
Where two headings read alike, the source gives them in different places.

Experiments:
[1] = system: A(H3N2) virus neuraminidase (NA); format: biochemical, influenza A(H3N2) virus
influenza [2] = system: influenza; set-up: method as in Rossignol, 2018; conditions: vs placebo, twice daily for 5 days, subjects enrolled within 36 h of symptom onset and followed up daily; ref Rossignol, 2018; cited from earlier work
[3] = system: B/Victoria-lineage virus neuraminidase (NA); conditions: cited from earlier work
[4] = system: B/Yamagata-lineage virus neuraminidase (NA); set-up: method as in Gubareva et al., 2017a; Monto et al., 2006; conditions: ref Gubareva et al., 2017a, Monto et al., 2006, cited from earlier work
uncomplicated influenza [5] = system: uncomplicated influenza; set-up: method as in Hayden, 2018; conditions: phase III, given <48 h after onset of symptoms; ref Hayden, 2018; cited from earlier work
uncomplicated influenza [6] = conditions: phase III, ref Epstein, 2017; cited from earlier work
[7] = frequency of reported adverse events similar to placebo; cited from earlier work
influenza [8] = system: influenza; set-up: method as in Haffizula et al., 2014; conditions: 600 mg twice daily for five days, ref Haffizula et al., 2014, cited from earlier work
[9] = B/Victoria-lineage NA A245T, ref Leang et al., 2014
[10] = B/Victoria-lineage NA D197N, ref Gubareva et al., 1998, 2017b, Ison et al., 2006, Mishin et al., 2005

With `[H]/N=C(\N)N[C@H]1C=C(C(=O)O)O[C@@H]([C@H](OC)[C@H](O)CO)[C@@H]1NC(C)=O` [Laninamivir] the “IC50 fold-change compared to reference median IC50 values” [1] was 17 fold.
In the case of `CCOC(=O)C1=C[C@@H](OC(CC)CC)[C@H](NC(C)=O)[C@@H](N)C1` [Oseltamivir], the “improvement in median time to alleviation of symptoms” value (influenza [2]) is given as 50 h, the “inhibition phenotype associated with NA AAS (NI/RI/HRI)” value (“inhibition phenotype associated” below) [3, 9] is given as “RI (type B viruses 5- to 50-fold)” and the “inhibition phenotype associated” value [3, 10] is given as “RI (type B viruses 5- to 50-fold)”. The “fold increase in IC50” value ([4]; B/Yamagata-lineage NA I221T) was “greater than 5 fold”.
In the case of `CCC(CC)[C@H](NC(C)=O)[C@@H]1[C@H](O)[C@@H](C(=O)O)C[C@H]1N=C(N)N` [Peramivir], the “IC50 fold-change compared to reference median IC50 values” [1] is listed as 5.3 fold, the “inhibition phenotype (NI/RI/HRI)” value [1] is listed as “NI (key: normal inhibition (NI) (type A viruses <10-fold; reduced inhibition (RI) (type A viruses 10- to 100-fold; highly reduced inhibition (HRI) (type A viruses >100-fold)” and the “inhibition phenotype associated” value [3, 9] is listed as “RI (type B viruses 5- to 50-fold)”. For the same compound, the “inhibition phenotype associated” value [3, 10] was “RI (type B viruses 5- to 50-fold)”, the “inhibition phenotype associated” value ([3]; B/Victoria-lineage NA K360E, D432G or H273Y, ref WHO-AVWG NAI substitution table) was “RI (type B viruses 5- to 50-fold)” and the “inhibition phenotype associated” value ([4]; B/Yamagata-lineage NA I221V and I221T) was “RI (type B viruses 5- to 50-fold)”.
For `CC(=O)N[C@H]1[C@H]([C@H](O)[C@H](O)CO)OC(C(=O)O)=C[C@@H]1N=C(N)N` [Zanamivir], the “inhibition phenotype associated” value [3, 9] is listed as “RI (type B viruses 5- to 50-fold)” and the “inhibition phenotype associated” value [3, 10] is listed as “RI (type B viruses 5- to 50-fold)”.
For `O=C1c2c(O)c(=O)ccn2N([C@@H]2c3ccccc3SCc3c2ccc(F)c3F)[C@@H]2COCCN12` [baloxavir, Baloxavir], the “alleviation of symptoms faster than placebo” value (uncomplicated influenza [5]) is given as 26.5 h.
In the case of `NC(=O)c1nc(F)c[nH]c1=O` [favipiravir, Favipiravir], the “reduction of median time to alleviation of symptoms compared to placebo” value (uncomplicated influenza [6]) is listed as 6 to 14 h.
In the case of `CC(=O)Oc1ccccc1C(=O)Nc1ncc([N+](=O)[O-])s1` [nitazoxanide, Nitazoxanide], the “tolerability, adverse events” value [7] is listed as “well tolerated”, the “improvement in median time to alleviation of symptoms” value (influenza [2]) is listed as 50 h and the “median improvement in alleviation of influenza symptoms” value (influenza [8]; enrolled within 48 h of symptom onset, p = 0.0084) is listed as 22 h. The virus shedding (influenza [8]; p = 0.0006) was “significant reduction”.
